Like-named read-outs stand apart in the source and are kept apart here.
Key:
BRIN-BD11 cells [1] = experiment: Acute insulin release from BRIN-BD11 cells cultured overnight with forskolin, PMA or pertussis toxin; assay type: cell-based, rat; details: acute test at 5.6 mM glucose; for Stimulatory effect on insulin secretion in cells cultured overnight with PMA: 10 nM PMA overnight (protein kinase C pathway); for Stimulatory effect on insulin secretion in cells cultured overnight with pertussis toxin: 0.1 μg/ml pertussis toxin overnight (G-protein pathway); for Stimulatory effect on insulin secretion in cells cultured overnight with forskolin: 25 μM forskolin overnight (desensitised cyclic AMP-protein kinase A pathway)
Protocol: FIG. 8 illustrates the dependence of the stimulatory effects of 1653.2 Da purified peptide (peak 1.10) from Agalychnis calcarifer on intracellular pathways mediated by protein kinase A (forskolin), protein kinase C (PMA) or pertussis toxin-sensitive G-proteins. Legend: Acute effects of the 13 amino acid 1653.2 Da purified peptide (peak 1.10) from Agalychnis calcarifer on forskolin and PMA on insulin secretion from BRIN-BD11 cells cultured overnight in the absence (control) and presence of 25 μM forskolin, 10 nM PMA or 0.1 μg/ml pertussis toxin. Acute incubations were performed at 5.6 mM glucose. Values are the mean ±SEM for 8 separate observations. ***P<0.001 compared with 5.6 mM glucose alone under same culture conditions. ^ΔΔΔp<0.001 compared with respective test reagent following control culture.
FIG. 9 illustrates the dependence of the stimulatory effects of 1641.7 Da, 1662.6 Da, 1619.8 Da and 1650.5 Da purified peptides (peaks 21, 22, 23 and 24) from Bombina variegata on intracellular pathways mediated by protein kinase A (forskolin), protein kinase C (PMA) or pertussis toxin-sensitive G-proteins. Legend: Acute effects of 1641.7, 1662.6, 1619.8 and 1650.5 Da purified peptides (peaks 21, 22, 23 and 24) from Bombina variegata on forskolin and PMA on insulin secretion from BRIN-BD11 cells cultured overnight in the absence (control) and presence of 25 μM forskolin, 10 nM PMA or 0.1 μg/ml pertussis toxin. Acute incubations were performed at 5.6 mM glucose. Values are the mean ±SEM for 8 separate observations. **P<0.001 compared with 5.6 mM glucose alone under same culture conditions. ^ΔP<0.001 compared with respective test reagent following control culture.
FIG. 10 illustrates the dependence of the stimulatory effects of 4920.4 Da and 4801.2 Da purified peptides (peaks 5.1 and 5.4) from Rana saharica on intracellular pathways mediated by protein kinase A (forskolin), protein kinase C (PMA) or pertussis toxin-sensitive G-proteins. Legend: Acute effects of 4920.4 and 4801.2 Da purified peptides (peaks 5.1 and 5.4) from Rana saharica on forskolin and PMA on insulin secretion from BRIN-BD11 cells cultured overnight in the absence (control) and presence of 25 μM forskolin, 10 nM PMA or […] pertussis toxin. Acute incubations were performed at 5.6 mM glucose. Values are the mean ±SEM for 8 separate observations. ***P<0.001 compared with 5.6 mM glucose alone under same culture conditions. ^ΔΔP<0.001 compared with respective test reagent following control culture.
(§1) Culture of insulin-secreting cells: Clonal rat insulin-secreting BRIN-BD11 cells were cultured in RPMI-1640 tissue culture medium containing 10% (v/v) fetal calf serum, 1% (v/v) antibiotics (100 U/ml penicillin, 0.1 mg/ml streptomycin) and 11.1 mM glucose. The production and characterisation of BRIN-BD11 cells are described elsewhere. Cells were maintained in sterile tissue culture flasks (Corning, Glass Works, UK) at 37° C. in an atmosphere of 5% CO2 and 95% air using LEEC incubator (Laboratory Technical Engineering, Nottingham, UK). In three experimental series using purified peptides from Agalychnis calcarifer, Bombina variegata and Rana saharica cells were cultured overnight with 25 μM forskolin, 10 nM PMA or 0.1 μg/ml pertussis toxin prior to acute tests.
Acute insulin release studies: Insulin release from BRIN-BD11 cells was determined using cell monolayers [McClenaghan N H, Barnett C R, Ah-Sing E, Abdel-Wahab Y H, O'Harte F P, Yoon T W, Swanston-Flatt S K and Flatt P R 1996 Characterization of a novel glucose-responsive insulin-secreting cell line, BRIN-BD11, produced by electrofusion. Diabetes 45 1132-1140]. The cells were harvested with the aid of trypsin/EDTA (Gibco), seeded into 24-multiwell plates (Nunc, Rosklide, Denmark) at a density of […] per well, and allowed to attach overnight. […]

BRIN-BD11 cells [2] = assay type: cell-based, rat; details: for Insulin-releasing action in the presence of verapamil (in words): 50 μM verapamil, calcium channel blocker; for Insulin-releasing action in cells depolarised with KCl (in words): 30 mM KCl; for Insulin secretion (ng/10^6 cells/20 min): 8 observations; for Insulin secretion (ng/10^6 cells/20 min), Control: addition alone without peptide: verapamil 50 μM or KCl 30 mM
Protocol: as §1
Acute insulin release studies: Insulin release from BRIN-BD11 cells was determined using cell monolayers [McClenaghan N H, Barnett C R, Ah-Sing E, Abdel-Wahab Y H, O'Harte F P, Yoon T W, Swanston-Flatt S K and Flatt P R 1996 Characterization of a novel glucose-responsive insulin-secreting cell line, BRIN-BD11, produced by electrofusion. Diabetes 45 1132-1140]. The cells were harvested with the aid of trypsin/EDTA (Gibco), seeded into 24-multiwell plates (Nunc, Rosklide, Denmark) at a density of […] per well, and allowed to attach overnight. Prior to acute test, cells were preincubated for 40 min at 37° C. in a 1.0 ml Krebs Ringer bicarbonate buffer (115 mM NaCl, 4.7 mM KCl, 1.28 MM CaCl2, 1.2 MM KH2PO4, 1.2 mM MgSO4, 10 mM NaHCO3, 5 g/l bovine serum albumin, pH 7.4) supplemented with 1.1 mM glucose. Test incubations were performed for 20 min at 37° C. using the same buffer supplemented with 5.6 mM glucose in the absence (control) and presence of various venom fractions, peaks (equivalent to approx. 25 μl dried HPLC fraction) or test agents as indicated in the Figures. Cell viability after 20 min test incubations was assessed by modified neutral red assay [Hunt S M, Chrzanowska C, Barnnett C R, Brand H N and Fawell J K 1987 A comparison of in vitro cytotoxicity assays and their application to water samples. Alternatives to Laboratory Animals 15 20-29]. After incubation, aliquots of buffer were removed and stored at −20° C. for insulin radiomnimmunoassay [Flatt P R. and Bailey C J 1981 Abnormal plasma glucose and insulin responses in heterozygous lean (ob/+) mice. Diabetologia 20 573-577].

[3] = Table 9, no addition, 5.6 mM glucose, control 1.69 ± 0.17
[4] = Table 9, peptide plus KCl (30 mM), 5.6 mM glucose
[5] = Table 9, peptide plus verapamil (50 μM), 5.6 mM glucose
[6] = peptides from Rana saharica, 5.6 mM glucose, mean ± SEM, 3 observations, no-peptide control 1.87 ± 0.06
[7] = peptides from Agalychnis litodryas, 5.6 mM glucose, mean ± SEM, 3 observations, no-peptide control 1.95 ± 0.16
[8] = peptides from Phyllomedusa trinitatis, 5.6 mM glucose, no-peptide control 1.47 ± 0.04

Pyr-QRLGHQWAVGHLM-amidated (N-terminal pyroglutamate, C-terminal amide) [Peptide 21, peptide from Bombina variegata, (His)^6Bombesin, 93% ID to bombesin]
Stimulatory effect on insulin secretion in cells cultured overnight with PMA (BRIN-BD11 cells [1]): did not affect | Stimulatory effect on insulin secretion in cells cultured overnight with pertussis toxin (BRIN-BD11 cells [1]): did not affect | Stimulatory effect on insulin secretion in cells cultured overnight with forskolin (BRIN-BD11 cells [1]): abolished | Insulin release (ng/10^6 cells/20 mins) (BRIN-BD11 cells [2]): 4.66 ± 0.24 ng/10^6 cells/20 mins | Insulin-releasing action in the presence of verapamil (in words) (BRIN-BD11 cells [2]): not affected | Insulin-releasing action in cells depolarised with KCl (in words) (BRIN-BD11 cells [2]): clearly evident | Insulin secretion (ng/10^6 cells/20 min) (BRIN-BD11 cells [2]; [3]): 3.65 ± 0.05 ng/10^6 cells/20 min | Insulin secretion (ng/10^6 cells/20 min) (BRIN-BD11 cells [2]; [4]): 13.68 ± 1.42ΔΔΔ*** ng/10^6 cells/20 min | Insulin secretion (ng/10^6 cells/20 min) (BRIN-BD11 cells [2]; [5]): 4.25 ± 0.82 ng/10^6 cells/20 min

IYNAICPCKHCNKCKPGLLAN [Peptide 25, 2300.0 Da peptide from Bombina variegata, no database match]
Insulin release (ng/10^6 cells/20 mins) (BRIN-BD11 cells [2]): 2.39 ± 0.30 ng/10^6 cells/20 mins

KGAAKGLLEVASCKLSKSC [Peptide 4.22, 1892.6 Da peptide from Rana saharica, 68.4% ID to Rugosin A]
Insulin release (ng/10^6 cells/20 mins) (BRIN-BD11 cells [2]; [6]): 3.47 ± 0.40 ng/10^6 cells/20 mins

GKPFYPPPIYPEDM [Peptide 24, peptide from Bombina variegata, 57% ID to tryptophyllin]
Stimulatory effect on insulin secretion in cells cultured overnight with PMA (BRIN-BD11 cells [1]): did not affect | Stimulatory effect on insulin secretion in cells cultured overnight with pertussis toxin (BRIN-BD11 cells [1]): did not affect | Stimulatory effect on insulin secretion in cells cultured overnight with forskolin (BRIN-BD11 cells [1]): abolished | Insulin release (ng/10^6 cells/20 mins) (BRIN-BD11 cells [2]): 4.30 ± 0.20 ng/10^6 cells/20 mins | Insulin-releasing action in the presence of verapamil (in words) (BRIN-BD11 cells [2]): not affected | Insulin-releasing action in cells depolarised with KCl (in words) (BRIN-BD11 cells [2]): clearly evident | Insulin secretion (ng/10^6 cells/20 min) (BRIN-BD11 cells [2]; [3]): 3.31 ± 0.20 ng/10^6 cells/20 min | Insulin secretion (ng/10^6 cells/20 min) (BRIN-BD11 cells [2]; [4]): 15.35 ± 0.41ΔΔΔ*** ng/10^6 cells/20 min | Insulin secretion (ng/10^6 cells/20 min) (BRIN-BD11 cells [2]; [5]): 3.08 ± 0.29 ng/10^6 cells/20 min

GILLDKLKNFAKTAGKGVLQSLLNTASCKLSGQC [Peptide 6.5, peptide from Rana saharica matching Brevinin-2EC]
Insulin release (ng/10^6 cells/20 mins) (BRIN-BD11 cells [2]; [6]): 5.93 ± 0.47 ng/10^6 cells/20 mins

ALSILRGLEKLAKMGIALTNCKATKKC [Peptide 3.8, 2873.5 Da peptide from Rana palustris, 46% ID to Brevinin-1]
Insulin release (ng/10^6 cells/20 mins) (BRIN-BD11 cells [2]; peptides from Rana palustris, 5.6 mM glucose, no-peptide control 1.467 ± 0.04): 2.48 ± 0.44 ng/10^6 cells/20 mins

GILSTIKDFAIKAGKGAAKGLLEMASCKLSGQC [Peptide 5.6, 3309.2 Da peptide from Rana saharica, 67% ID to Brevinin-2EB]
Insulin release (ng/10^6 cells/20 mins) (BRIN-BD11 cells [2]; [6]): 2.86 ± 0.37 ng/10^6 cells/20 mins

GIFSKFGRKKIKNLLISGLKNVGKEVGMDVVRTGIDIAGCKIKGEC [Peptide 5.1, peptide from Rana saharica, 98% ID to Esculentin-1]
Stimulatory effect on insulin secretion in cells cultured overnight with PMA (BRIN-BD11 cells [1]): abolished | Stimulatory effect on insulin secretion in cells cultured overnight with pertussis toxin (BRIN-BD11 cells [1]): abolished | Stimulatory effect on insulin secretion in cells cultured overnight with forskolin (BRIN-BD11 cells [1]): abolished | Insulin-releasing action in the presence of verapamil (in words) (BRIN-BD11 cells [2]): not inhibited | Insulin-releasing action in cells depolarised with KCl (in words) (BRIN-BD11 cells [2]): clearly evident | Insulin secretion (ng/10^6 cells/20 min) (BRIN-BD11 cells [2]; Table 10, no addition, 5.6 mM glucose, control 1.69 ± 0.17): 2.96 ± 0.32 ng/10^6 cells/20 min | Insulin secretion (ng/10^6 cells/20 min) (BRIN-BD11 cells [2]; Table 10, peptide plus KCl (30 mM), 5.6 mM glucose): 10.11 ± 0.81ΔΔΔ*** ng/10^6 cells/20 min | Insulin secretion (ng/10^6 cells/20 min) (BRIN-BD11 cells [2]; Table 10, peptide plus verapamil (50 μM), 5.6 mM glucose): 2.88 ± 0.28 ng/10^6 cells/20 min | Insulin release (ng/10^6 cells/20 mins) (BRIN-BD11 cells [2]; [6]): 3.32 ± 0.22 ng/10^6 cells/20 mins

AVITGACERDVQCGGGTCCAVSLI . . . [Peptide 4.23]
Insulin release (ng/10^6 cells/20 mins) (BRIN-BD11 cells [2]; [6]): 4.25 ± 0.17 ng/10^6 cells/20 mins

[Cl-].[K+] [KCl, reference compound]
Insulin secretion (ng/10^6 cells/20 min), Control (BRIN-BD11 cells [2]; Table 8, 5.6 mM glucose): 5.32 ± 0.38 ΔΔΔ ng/10^6 cells/20 min | Insulin secretion (ng/10^6 cells/20 min), Control (BRIN-BD11 cells [2]; Table 9, 5.6 mM glucose): 5.33 ± 0.38ΔΔΔ ng/10^6 cells/20 min | Insulin secretion (ng/10^6 cells/20 min), Control (BRIN-BD11 cells [2]; Table 10, 5.6 mM glucose): 5.33 ng/10^6 cells/20 min

MLADVFEKIMGD . . . [Peptide 1.7]
Insulin release (ng/10^6 cells/20 mins) (BRIN-BD11 cells [2]; [7]): 4.22 ± 0.48 ng/10^6 cells/20 mins

CCCCCCCCCCCCCC(=O)O[C@@H]1[C@@H](C)[C@@]2(O)[C@@H](C=C(CO)C[C@]3(O)C(=O)C(C)=C[C@@H]23)[C@@H]2C(C)(C)[C@]12OC(C)=O [PMA, reference compound]
Stimulatory effect on insulin secretion in cells cultured overnight with PMA (BRIN-BD11 cells [1]): abolition

AVWKDFLKNIGKAAGKAVLNSVTDMVNE [Peptide 2.9, 3020.0 Da peptide from Agalychnis litodryas, 79% ID to Dermaseptin B IV precursor]
Insulin release (ng/10^6 cells/20 mins) (BRIN-BD11 cells [2]; [7]): 7.46 ± 0.08 ng/10^6 cells/20 mins

ALWKDILKNVGKAAGKAVLNTVTDMVNQ [Peptide 2.10, peptide from Phyllomedusa trinitatis, 100% ID to Dermaseptin B IV precursor]
Insulin release (ng/10^6 cells/20 mins) (BRIN-BD11 cells [2]; [8]): 2.356 ± 0.34 ng/10^6 cells/20 mins

XXPLAPFFQAVFK . . . [Peptide 1.8]
Insulin release (ng/10^6 cells/20 mins) (BRIN-BD11 cells [2]; [8]): 2.48 ± 0.37 ng/10^6 cells/20 mins

FLPLLAGLAANFLPKIFCKITRKC [Peptide 8.3, peptide from Rana saharica matching Brevinin-1E]
Insulin release (ng/10^6 cells/20 mins) (BRIN-BD11 cells [2]; [6]): 3.53 ± 0.06 ng/10^6 cells/20 mins

FLPIIAGVAAKVFPKIFCAISKKC [Peptide 4.1, peptide from Rana pipiens identical to pipinin-1]
Insulin release (ng/10^6 cells/20 mins) (BRIN-BD11 cells [2]; peptides from Rana pipiens, 5.6 mM glucose, mean ± SEM, 3 observations, no-peptide control 2.76 ± 0.13): 4.15 ± 0.01 ng/10^6 cells/20 mins
